Results from patent US8785453B2, “Arylpiperazine-containing purine derivatives and uses thereof” (Green Cross Corporation, priority 2009, dated 2014).

Key:
mice [1] = test: Synergy effect of the inventive compound combined with conventional anti-depressants in forced swimming test; type: in vivo; details: for anti-immobility effect in FST, anti-depressant alone: 25 mg/kg p.o.
Description: Each drug or vehicle was suspended in 3% Tween 80 solution and administered orally (p.o.) 60 min before forced swimming test.

[2] = molecular target: T1, human recombinant 5-HT2C receptor (Homo sapiens, UniProt P28335); test: Binding affinity for serotonin 5-HT2C receptor ([3H]Mesulergine); details: CHO-K1 membranes, 1.3 nM [3H]Mesulergine; read-out: binding affinity (IC50) 5-HT2C
T1 construct: purchased PerkinElmer
T1 sequence (P28335 33-458): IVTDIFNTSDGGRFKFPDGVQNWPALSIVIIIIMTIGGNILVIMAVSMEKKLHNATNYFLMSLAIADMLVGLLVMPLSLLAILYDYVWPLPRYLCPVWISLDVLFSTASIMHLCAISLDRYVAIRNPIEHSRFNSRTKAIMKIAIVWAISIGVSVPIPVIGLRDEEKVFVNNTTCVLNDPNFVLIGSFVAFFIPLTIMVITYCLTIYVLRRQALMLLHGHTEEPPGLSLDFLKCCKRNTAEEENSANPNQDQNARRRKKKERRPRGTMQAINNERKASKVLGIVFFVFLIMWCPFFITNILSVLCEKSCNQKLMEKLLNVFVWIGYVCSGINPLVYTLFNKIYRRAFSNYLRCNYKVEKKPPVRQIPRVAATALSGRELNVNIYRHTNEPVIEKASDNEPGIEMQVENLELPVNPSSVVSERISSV
Description: (§1) Receptor binding affinities of the compounds for serotonin receptors were measured by the method described in the literature (see [Park W K et al., Pharmacol Biochem Behav., 82(2), 361-372 (2005)].
(§2) The binding affinity (IC50) of a compound for the receptor was calculated by computerized nonlinear regression analysis (GraphPad Prism Program, San Diego, USA) using 7-8 varied concentrations of the compound run in duplicate tubes.
For serotonin 5-HT2C binding, frozen membranes from stable CHO-K1 cell line expressing the human recombinant 5-HT2C receptor (PerkinElmer, 4 μg/well), [^3H]Mesulergine (Amersham, 1.3 nM) and test compounds were added into 50 mM Tris-HCl (pH 7.4) buffer containing 0.1% ascorbic acid and 4 mM CaCl2. Nonspecific binding was determined using 100 μM mianserin. The incubations were performed for 60 min at 27, and these were terminated by rapid filtration through filtermate A glass fiber filter presoaked in 0.5% PEI.

[3] = molecular target: T2, human serotonin transporter (Homo sapiens, UniProt P31645); test: Binding affinity for serotonin transporter ([3H]Imipramine); details: HEK-293 membrane, 2 nM [3H]Imipramine; read-out: binding affinity Serotonin Transporter
T2 construct: purchased PerkinElmer; host or cells: HEK-293 cells
T2 sequence (P31645 whole entry): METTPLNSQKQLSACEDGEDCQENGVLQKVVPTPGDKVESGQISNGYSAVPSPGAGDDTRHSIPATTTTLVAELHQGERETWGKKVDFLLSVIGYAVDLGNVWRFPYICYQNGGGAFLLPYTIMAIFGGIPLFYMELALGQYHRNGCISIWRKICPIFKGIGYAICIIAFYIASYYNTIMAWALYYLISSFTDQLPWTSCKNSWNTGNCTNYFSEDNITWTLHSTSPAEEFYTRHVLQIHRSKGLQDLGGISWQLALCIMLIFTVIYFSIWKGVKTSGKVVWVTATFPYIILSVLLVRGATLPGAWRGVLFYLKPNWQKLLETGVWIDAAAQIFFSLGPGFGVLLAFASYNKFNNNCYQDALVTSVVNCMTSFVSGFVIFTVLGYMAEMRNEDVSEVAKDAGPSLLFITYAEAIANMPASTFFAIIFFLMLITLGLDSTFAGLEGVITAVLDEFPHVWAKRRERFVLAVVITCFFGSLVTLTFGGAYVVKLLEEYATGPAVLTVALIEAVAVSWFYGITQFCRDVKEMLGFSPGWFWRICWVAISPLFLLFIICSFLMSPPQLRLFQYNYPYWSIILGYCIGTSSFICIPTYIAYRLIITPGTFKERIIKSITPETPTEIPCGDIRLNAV
Description: For serotonin transporter binding assays, a reaction mixture with a final volume of 0.25 ml was prepared by mixing a test compound, human serotonin transporter membrane expressed in HEK-293 cells (PerkinElmer, 5 μg/well), [^3H] Imipramine (PerkinElmer, 2 nM) and 50 mM Tris-HCl (pH 7.4) buffer containing 120 mM NaCl and 5 mM KCl. The reaction mixture was incubated for 30 min at 27, and harvested through filtermate A glass fiber filter presoaked in 0.5% PEI with ice cold 50 mM Tris-HCl buffer (pH 7.4) containing 0.9% NaCl.

mice [4] = test: Anti-depressants activity in forced swimming test; type: in vivo; details: 60 min before testing
Description: Each mouse was placed in a 25 cm glass cylinder (10 cm diameter) containing 15 cm of water maintained at 22±1, and was forced to swim for 10 min. 24 hours later, the mouse was replaced into the cylinder and the total duration of immobility was recorded during the last 5 min of the 6-min testing period. Mice are judged immobile when they float in an upright position and make only small movements to keep their head above water. Test drugs were suspended in 3% Tween 80 solution, and administered orally (po) 60 min before the testing.

[5] = molecular target: T3, human recombinant serotonin 5-HT2A receptor (Homo sapiens, UniProt P28223); test: Binding affinity for serotonin 5-HT2A receptor ([3H]Ketanserin); details: CHO-K1 cells, 1 nM [3H]Ketanserin; read-out: binding affinity (IC50) 5-HT2A
T3 construct: purchased PerkinElmer Life and Analytical Sciences, USA; host or cells: CHO-K1 cells
T3 sequence (P28223 whole entry): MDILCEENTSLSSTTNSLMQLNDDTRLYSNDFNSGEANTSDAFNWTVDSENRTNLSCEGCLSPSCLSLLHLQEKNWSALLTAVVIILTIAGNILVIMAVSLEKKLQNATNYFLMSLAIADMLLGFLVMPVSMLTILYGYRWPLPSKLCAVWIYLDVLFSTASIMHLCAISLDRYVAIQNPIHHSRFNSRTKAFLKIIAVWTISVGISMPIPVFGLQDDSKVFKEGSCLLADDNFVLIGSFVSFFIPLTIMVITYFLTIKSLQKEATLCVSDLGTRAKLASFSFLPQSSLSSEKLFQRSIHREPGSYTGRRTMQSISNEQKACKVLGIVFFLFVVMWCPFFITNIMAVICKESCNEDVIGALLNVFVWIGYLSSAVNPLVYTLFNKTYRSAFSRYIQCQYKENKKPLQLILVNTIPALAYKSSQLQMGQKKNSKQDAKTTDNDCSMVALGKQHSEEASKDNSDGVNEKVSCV
Description: as §1
For serotonin 5-HT2A binding, an aliquot of human recombinant serotonin 5-HT2A receptor (PerkinElmer Life and Analytical Sciences, USA) expressed in CHO-K1 cells (5 μg/well) and 1 nM [^3H]Ketanserin (PerkinElmer) were used in the presence of mianserin (20 μM) as a nonspecific. The reaction mixture was incubated for 60 min […] 50 mM Tris-HCl (pH 7.4) buffer containing 4 mM CaCl2 and 0.1% ascorbic acid, and harvested through filtermate A glass fiber filter (Wallac, Finland) presoaked in 0.5% polyethyleneimine (PEI) by microbeta filtermate-96 harvester (PerkinElmer) to terminate the reaction, and then washed with ice cold 50 mM Tris-HCl buffer solution (pH 7.4). The filter was then covered with MeltiLex, sealed in a sample bag, dried in an oven. The radioactivity retained in the filter was finally counted using MicroBeta Plus (Wallac).
as §2

| SMILES | anti-immobility effect in FST, anti-depressant alone (mice [1]) | IC50 [2] | efficacy in forced swimming test, compound alone (mice [1]; 12.5 mg/kg or 25 mg/kg p.o.) | IC50 [3] | Immobility in forced swimming test (mice [4]; 25 mg/kg po) | Immobility in forced swimming test (mice [4]; 50 mg/kg po) | IC50 [5] |
| --- | --- | --- | --- | --- | --- | --- | --- |
| COc1ccc(C(CN(C)C)C2(O)CCCCC2)cc1 (stereo not drawn) [Effexor] | did not improve the anti-immobility effect | – | – | – | – | – | – |
| Cc1cccc(N2CCN(CCCCNc3ncnc4c3nc(-c3ccccc3)n4-c3ccccc3)CC2)c1C [Example 68, N-(4-(4-(2,3-dimethylphenyl)piperazin-1-yl)butyl)-8,9-diphenyl-9H-purine-6-amine] | – | 4.7 nM | do not demonstrate efficacy on animal model | 146 nM | 78.66 ± 11.33% | 72.11 ± 7.63% | 2.4 nM |
| CSc1ccc(-n2c(C)nc3c(NCCCN4CCN(c5cccc(C)c5C)CC4)ncnc32)cc1.Cl [Example 86, N-(3-(4-(2,3-dimethylphenyl)piperazin-1-yl)propyl)-8-methyl-9-(4-(methylthio)phenyl)-9H-purine-6-amine hydrochloride] | – | 376 nM | – | 64 nM | 66.53 ± 8.35% | – | 25 nM |
| CCc1nc2c(NCCN3CCN(c4cccc(C)c4C)CC3)ncnc2n1-c1ccc(SC)cc1.Cl [Example 87, N-(2-(4-(2,3-dimethylphenyl)piperazin-1-yl)ethyl)-8-ethyl-9-(4-(methylthio)phenyl)-9H-purine-6-amine hydrochloride] | – | 100 nM | – | 136 nM | 88.26 ± 6.05% | – | 9.3 nM |
| Cc1cccc(N2CCN(CCNc3ncnc4c3nc(-c3cccs3)n4-c3ccccc3)CC2)c1C.Cl [Example 91, N-(2-(4-(2,3-dimethylphenyl)piperazin-1-yl)ethyl)-9-phenyl-8-(thiophen-2-yl)-9H-purine-6-amine hydrochloride] | – | 141 nM | – | 316 nM | 89.19 ± 9.17% | – | 28 nM |
| Cc1cccc(N2CCN(CCCNc3ncnc4c3nc(-c3cccs3)n4-c3ccccc3)CC2)c1C.Cl [Example 92, N-(3-(4-(2,3-dimethylphenyl)piperazin-1-yl)propyl)-9-phenyl-8-(thiophen-2-yl)-9H-purine-6-amine hydrochloride] | – | 301 nM | – | 38.9 nM | 85.86 ± 8.90% | – | 17 nM |
| CNCCC(Oc1ccc(C(F)(F)F)cc1)c1ccccc1 (stereo not drawn) [Prozac] | did not improve the anti-immobility effect | – | – | – | – | – | – |
